In patent publication US7842856B2, “Herbicide resistance gene, compositions and methods” (The Board of Trustees of the University of Illinois, priority 2005, dated 2010):

Key:
[1] = tested on: A. tuberculatus F2 and backcross lines; test: Inheritance of resistance: R or S response of F2 and backcross lines to lactofen; assay type: in vivo, Amaranthus tuberculatus
[2] = tested on: A. tuberculatus R (PPO inhibitor-resistant) parent; test: Herbicide dose-response on whole plants, R parent; assay type: in vivo, Amaranthus tuberculatus (waterhemp); details: for GR50 (growth reduction by 50%) R: R line
[3] = male F1(R) x female F1(R), lactofen 110 g ai ha^−1 plus 1% COC, 15 days after treatment, N 400
[4] = male F1(R) x female R, lactofen 110 g ai ha^−1, 15 days, N 200
[5] = male F1(R) x female S, lactofen 110 g ai ha^−1, 15 days, N 200
[6] = male F1(S) x female F1(S), lactofen 110 g ai ha^−1, 15 days, N 400
[7] = male F1(S) x female R, lactofen 110 g ai ha^−1, 15 days, N 200
[8] = male F1(S) x female S, lactofen 110 g ai ha^−1, 15 days, N 200

SMILES	Observed numbers R [1, 3]	Observed numbers S [1, 3]	Observed numbers R [1, 4]	Observed numbers S [1, 4]	Observed numbers R [1, 5]	Observed numbers S [1, 5]	Observed numbers R [1, 6]	Observed numbers S [1, 6]	Observed numbers R [1, 7]	Observed numbers S [1, 7]	Observed numbers R [1, 8]	Observed numbers S [1, 8]	GR50 (growth reduction by 50%) R ([2]; 10 DAT) [g ai ha^−1]	GR50 (growth reduction by 50%) R ([2]; 15 DAT, dry weight vs control, plus 1% COC) [g ai ha^−1]	fold higher doses survived compared with S plants ([2]; lines homozygous for resistance vs S plants (FIG. 2; Table 2)) [fold]
CCOC(=O)C(C)OC(=O)c1cc(Oc2ccc(C(F)(F)F)cc2Cl)ccc1[N+](=O)[O-] (racemic) [Lactofen, (±)-2-ethoxy-1-methyl-2-oxoethyl 5-{2-chloro-4-(trifluoromethyl)phenoxy}-2-nitrobenzoate]	297	103	200	0	98	102	304	96	200	0	109	91	2.9	21	53
O=C(O)c1cc(Oc2ccc(C(F)(F)F)cc2Cl)ccc1[N+](=O)[O-] [Acifluorfen, 5-{2-chloro-4-(trifluoromethyl)phenoxy}-2-nitrobezoic acid]													5.8		
